Experimental data published in patent US20140243292A1, “SUBSITUTED 2-(CHROMAN-6-YLOXYL)-THIAZOLES AND THEIR USE AS PHARMACEUTICALS” (Sanofi, priority 2011, published 2014).
Counter-ions that a name gives are not always drawn.

Biological target: T1, human NCX1 (Homo sapiens, UniProt P32418)
T1 construct: expressed in transfected cells
Experiment: NCX1 inhibition, reverse mode (Ca2+ influx into cells), FLIPR Fluo-4 assay
Type: cell-based
Conditions: inhibition of NCX1 in reverse mode (Ca2+ influx into cells); read-out: NCX1rv IC50
Description: The sodium/calcium exchanger NCX1 can transport calcium ions and sodium ions through the cell membrane. The transport is an exchange of Ca^2+ and Na^+ in two directions depending on membrane potential and ion gradients. At the first direction, named “forward mode” or “calcium export mode”, Ca^2+ is transported out of the cell and Na^+ is transported into the cell. At the other direction, named “reverse mode” or “calcium import mode”, the transport directions are vice versa. The effect of the compounds of the invention on NCX1 was determined in CHO cells stably expressing human NCX1 (gene symbol SLC8A1; cf. WO 2009/115238). The assay is based on the monitoring of intracellular Ca^2+ concentrations using a calcium-sensitive fluorescence dye which is detected by means of a FLIPR device (Fluorimetric Imaging Plate Reader, Molecular Devices).
The assay is based on the monitoring of intracellular Ca^2+ concentrations using the calcium-sensitive dye Fluo-4. CHO cells expressing NCX1 were loaded with the dye by means of the acetoxymethyl ester Fluo-4 AM (Invitrogen, F14202), which is cleaved intracellularly by esterase activity to yield the charged species of free Fluo-4. After an preincubation period with the test compound, Gramicidine (Sigma, G5002) was added. Gramicidine is an ionophor for Na^+ ions mediating an increase of intracellular Na^+ ions. Consequently, intracellular Na^+ ions are exchanged against extracellular Ca^2+ ions (Ca^2+ influx, reverse mode). The intracellular elevation of Ca^2+ ions was detected by measuring the fluorescence of Fluo-4 at a wavelength of 520 nm by a FLIPR device.
Briefly, for the reverse mode transport assay 18000 cells per well were seeded into a 96 well microplate (Corning COSTAR 3904) and incubated overnight in culture medium (1× Nut Mix F12 (Ham) (Gibco, 21765-029); 10% (v/v) fetal calf serum (PAA Gold, A15-649); 450 μg/ml Geneticin (Gibco, 10131-027)). A total volume of 100 μl medium per well was used. For the preparation of the FLIPR assay, the culture medium was removed from the plates and 100 μl of dye solution (2 μM Fluo-4 AM; 0.02% (v/v) Pluronic F-127 (20%, Invitrogen, P3000MP); 0.1% (v/v) bovine albumin solution (30% (v/v), Sigma, A9205) in assay buffer (133.8 mM NaCl (Sigma, S5886); 4.7 mM KCl (Sigma, P3911); 1.25 mM MgCl2 (Merck, 1.05833.0250); 3.5 mM CaCl2 (Merck, 1.02083.0250); 5 mM glucose (Sigma, G7021); 10 mM Hepes (Sigma, H4034); 0.01% (v/v) Pluronic F-127 (5%, Sigma, P2443); 2.5 mM Probenecid (Maybridge, SB00915EB); pH 7.4)) were added into each well. The plates were incubated in the dark at room temperature for 80 min. After the incubation period, the dye solution was removed and the wells were washed with 100 μl of assay buffer. Then 80 μl of a solution of the test compound in assay buffer in different concentrations were added into the wells. The plates were incubated at 16° C. for 45 min. Meanwhile a 60 μM solution of Gramicidine in assay buffer (4° C.) was prepared and stored in the wells of a 96 well microplate (96 well microplate, polypropylene, U-shape (Greiner Bio-One, 650201)) at 4° C. until measurement was started. The fluorescence monitoring was performed at 240 measuring points with measurement intervals of 2 sec. After the fifth measuring point, 40 μl of the Gramicidine solution were added to each well of the assay plates to give a final Gramicidine concentration of 20 μM. For the determination of the IC50 values the minimal fluorescence value was subtracted from the maximal fluorescence value for all measuring points. The calculation of the IC50 values via the percentage inhibitions of Ca^2+ influx into cells (reverse mode) effected by the test compound was performed in Biost@t Speed 2.0.

| SMILES | IC50 [nM] |
| --- | --- |
| O=C(NCc1ccncc1)c1cnc(Oc2ccc3c(c2)CCC(c2ccsc2)O3)s1 (centres unmarked) [compound 60, hydrochloride] | 100 |
| O=C(NCCc1ccncc1)c1cnc(Oc2ccc3c(c2)CCC(c2ccccc2)O3)s1 (centres unmarked) [compound 61, hydrochloride] | 200 |
| Cc1c(CNC(=O)c2cnc(Oc3ccc4c(c3)CC[C@@H](c3ccccc3)O4)s2)cnn1C [compound 62] | 300 |
| Cc1c(CNC(=O)c2cnc(Oc3ccc4c(c3)CC[C@H](c3ccccc3)O4)s2)cnn1C [compound 63] | 600 |
| Cc1ccc(C(=O)NCc2cnc(Oc3ccc4c(c3)CCC(c3ccccc3)O4)s2)cn1 (centres unmarked) [compound 64] | 1300 |
| Cc1noc(C)c1C(=O)NCc1cnc(Oc2ccc3c(c2)CCC(c2ccccc2)O3)s1 (centres unmarked) [compound 65] | 200 |
| Cc1cc(C(=O)NCc2cnc(Oc3ccc4c(c3)CCC(c3ccccc3)O4)s2)n(C)n1 (centres unmarked) [compound 66] | 600 |
| Cc1nn(C)c(C)c1C(=O)NCc1cnc(Oc2ccc3c(c2)CCC(c2ccccc2)O3)s1 (centres unmarked) [compound 67] | 300 |
| O=C(NCc1cnc(Oc2ccc3c(c2)CCC(c2ccccc2)O3)s1)c1ccnc(Cl)c1 (centres unmarked) [compound 68] | 800 |
| Cc1ncoc1C(=O)NCc1cnc(Oc2ccc3c(c2)CCC(c2ccccc2)O3)s1 (centres unmarked) [compound 69] | 500 |
| CCn1nccc1C(=O)NCc1cnc(Oc2ccc3c(c2)CCC(c2ccccc2)O3)s1 (centres unmarked) [compound 70] | 300 |
| Cc1c(C(=O)NCc2cnc(Oc3ccc4c(c3)CCC(c3ccccc3)O4)s2)cnn1C (centres unmarked) [compound 71] | 700 |
| CCn1cc(C(=O)NCc2cnc(Oc3ccc4c(c3)CCC(c3ccccc3)O4)s2)cn1 (centres unmarked) [compound 72] | 300 |
| Cc1nc(C(=O)NCc2cnc(Oc3ccc4c(c3)CCC(c3ccccc3)O4)s2)cs1 (centres unmarked) [compound 73] | 300 |
| Cc1ccn(CC(=O)NCc2cnc(Oc3ccc4c(c3)CCC(c3ccccc3)O4)s2)n1 (centres unmarked) [compound 74] | 300 |
| O=C(NCc1cnc(Oc2ccc3c(c2)CCC(c2ccccc2)O3)s1)c1ccnc(N2CCCCC2)c1 (centres unmarked) [compound 75] | 9800 |
| COc1cc(C(=O)NCc2cnc(Oc3ccc4c(c3)CCC(c3ccccc3)O4)s2)ccn1 (centres unmarked) [compound 76] | 5600 |
| Cc1noc(C)c1CC(=O)NCc1cnc(Oc2ccc3c(c2)CCC(c2ccccc2)O3)s1 (centres unmarked) [compound 77] | 400 |
| Cc1nc(C)c(C(=O)NCc2cnc(Oc3ccc4c(c3)CCC(c3ccccc3)O4)s2)o1 (centres unmarked) [compound 78] | 300 |
| O=C(NCc1cnc(Oc2ccc3c(c2)CCC(c2ccccc2)O3)s1)c1ccncc1 (centres unmarked) [compound 79] | 200 |

| SMILES | IC50 [nM] |
| --- | --- |
| O=C(NCc1cnc(Oc2ccc3c(c2)CCC(c2ccccc2)O3)s1)c1ccncc1Cl (centres unmarked) [compound 80] | 200 |
| O=C(NCc1cnc(Oc2ccc3c(c2)CCC(c2ccccc2)O3)s1)c1ccncc1F (centres unmarked) [compound 81] | 1100 |
| Cc1cc(C(=O)NCc2cnc(Oc3ccc4c(c3)CCC(c3ccccc3)O4)s2)ccn1 (centres unmarked) [compound 82] | 400 |
| O=C(NCc1cnc(Oc2ccc3c(c2)CCC(c2ccccc2)O3)s1)c1ccnc(N2CCOCC2)c1 (centres unmarked) [compound 83] | 2100 |
| Cc1cc(C(=O)NCc2cnc(Oc3ccc4c(c3)CCC(c3ccccc3)O4)s2)on1 (centres unmarked) [compound 84] | 300 |
| Nc1cc(C(=O)NCc2cnc(Oc3ccc4c(c3)CCC(c3ccccc3)O4)s2)ccn1 (centres unmarked) [compound 85] | 10900 |
| Cn1nccc1C(=O)NCc1cnc(Oc2ccc3c(c2)CCC(c2ccccc2)O3)s1 (centres unmarked) [compound 86] | 300 |
| O=C(NCc1cnc(Oc2ccc3c(c2)CCC(c2ccccc2)O3)s1)c1ncccn1 (centres unmarked) [compound 87] | 400 |
| O=C(NCc1cnc(Oc2ccc3c(c2)CCC(c2ccccc2)O3)s1)c1ccnc(O)c1 (centres unmarked) [compound 88] | 5000 |
| O=C(NCc1cnc(Oc2ccc3c(c2)CCC(c2ccccc2)O3)s1)c1ccncn1 (centres unmarked) [compound 89] | 200 |
| O=C(CCn1cccn1)NCc1cnc(Oc2ccc3c(c2)CCC(c2ccccc2)O3)s1 (centres unmarked) [compound 90] | 600 |
| Cc1cc(C(=O)NCc2cnc(Oc3ccc4c(c3)CCC(c3ccccc3)O4)s2)nc(C)n1 (centres unmarked) [compound 91] | 5300 |
| O=C(Cn1cccn1)NCc1cnc(Oc2ccc3c(c2)CCC(c2ccccc2)O3)s1 (centres unmarked) [compound 92] | 1100 |
| CCn1ccc(C(=O)NCc2cnc(Oc3ccc4c(c3)CCC(c3ccccc3)O4)s2)n1 (centres unmarked) [compound 93] | 500 |
| Cc1noc(C)c1CCC(=O)NCc1cnc(Oc2ccc3c(c2)CCC(c2ccccc2)O3)s1 (centres unmarked) [compound 94] | 900 |
| O=C(CN1C(=O)CNC1=O)NCc1cnc(Oc2ccc3c(c2)CCC(c2ccccc2)O3)s1 (centres unmarked) [compound 95] | 600 |
| CC(C)Oc1cccc(C2CCc3cc(Oc4ncc(C(=O)NCc5ccncc5)s4)ccc3O2)c1 (centres unmarked) [compound 96] | 800 |
| Cc1noc(C)c1CCNC(=O)c1cnc(Oc2ccc3c(c2)CCC(c2cccc(OC(C)C)c2)O3)s1 (centres unmarked) [compound 97] | 1200 |
| Cc1nc(Oc2ccc3c(c2)CC[C@@H](c2ccccc2)O3)sc1C(=O)NCc1ccncc1 [compound 98, hydrochloride] | 300 |
| CCCCN(C)Cc1cnc(Oc2ccc3c(c2)CCC(c2ccccc2)O3)s1 (centres unmarked) [compound 99] | 700 |

| SMILES | IC50 [nM] |
| --- | --- |
| C[C@@H]1CN(Cc2cnc(Oc3ccc4c(c3)CCC(c3ccccc3)O4)s2)C[C@H](C)O1 (some centres unmarked) [compound 100] | 1000 |
| CC(C)CNCc1cnc(Oc2ccc3c(c2)CCC(c2ccccc2)O3)s1 (centres unmarked) [compound 101] | 400 |
| CN1CCN(Cc2cnc(Oc3ccc4c(c3)CCC(c3ccccc3)O4)s2)CC1=O (centres unmarked) [compound 102] | 400 |
| c1ccc(C2CCc3cc(Oc4ncc(CN5CCCC5)s4)ccc3O2)cc1 (centres unmarked) [compound 104] | 400 |
| CC(NCc1cnc(Oc2ccc3c(c2)CCC(c2ccccc2)O3)s1)C(C)(C)C (centres unmarked) [compound 105] | 800 |
| CCC(CC)NCc1cnc(Oc2ccc3c(c2)CCC(c2ccccc2)O3)s1 (centres unmarked) [compound 106] | 500 |
| FC(F)(F)CNCc1cnc(Oc2ccc3c(c2)CCC(c2ccccc2)O3)s1 (centres unmarked) [compound 107] | 200 |
| c1ccc(C2CCc3cc(Oc4ncc(CN5CC6CCC(CC6)C5)s4)ccc3O2)cc1 (centres unmarked) [compound 108] | 1400 |
| FC1(F)CCN(Cc2cnc(Oc3ccc4c(c3)CCC(c3ccccc3)O4)s2)CC1 (centres unmarked) [compound 109] | 700 |
| c1ccc(C2CCc3cc(Oc4ncc(CNC5CCC5)s4)ccc3O2)cc1 (centres unmarked) [compound 110] | 200 |
| Cc1cc(NCc2cnc(Oc3ccc4c(c3)CCC(c3ccccc3)O4)s2)on1 (centres unmarked) [compound 111] | 800 |
| CCC(C)(C)NCc1cnc(Oc2ccc3c(c2)CCC(c2ccccc2)O3)s1 (centres unmarked) [compound 112] | 300 |
| CC(C)NCc1cnc(Oc2ccc3c(c2)CCC(c2ccccc2)O3)s1 (centres unmarked) [compound 113] | 300 |
| COCCNCc1cnc(Oc2ccc3c(c2)CCC(c2ccccc2)O3)s1 (centres unmarked) [compound 114] | 200 |
| CC(C)CCNCc1cnc(Oc2ccc3c(c2)CCC(c2ccccc2)O3)s1 (centres unmarked) [compound 115] | 600 |
| CCCNCc1cnc(Oc2ccc3c(c2)CCC(c2ccccc2)O3)s1 (centres unmarked) [compound 116] | 200 |
| c1ccc(C2CCc3cc(Oc4ncc(CN5CCOCC5)s4)ccc3O2)cc1 (centres unmarked) [compound 117] | 300 |
| CC(C)(C)NCc1cnc(Oc2ccc3c(c2)CCC(c2ccccc2)O3)s1 (centres unmarked) [compound 118] | 400 |
| CN(C)Cc1cnc(Oc2ccc3c(c2)CCC(c2ccccc2)O3)s1 (centres unmarked) [compound 119] | 400 |
